Assay results: PMC5825169 (PLoS Pathogens, 2018)
Several values for one entry are separate records, joined by “and”; a condition that tells them apart may be missing. Equal entries are not always repeated. Entries after “also recorded” stand apart in the source; their conditions may differ. Where two headings read alike, the source gives them in different places.

Assays:
RbmC2 β-prism domain [1] = molecular target: T1, RbmC2 β-prism domain (Vibrio cholerae, UniProt Q9KTH2); assay: biochemical; type: binding
RbmC1 β-prism domain = RbmC1 β-prism domain (Vibrio cholerae, UniProt Q9KTH2); assay: biochemical; type: binding
[2] = molecular target: T2, VCC β-prism lectin domain (Vibrio cholerae serotype O1, UniProt P09545); assay: biochemical; type: binding
[3] = molecular target: T2, VCC β-prism lectin domain; conditions: read-out: VCC β-prism affinity; cited from earlier work
[4] = molecular target: T2, VCC β-prism lectin domain; assay: biochemical; type: binding; remark: listed apart in the source
RbmC2 β-prism domain [5] = molecular target: T1, RbmC2 β-prism domain; assay: biochemical; type: binding; conditions: RbmC2 β-prism affinity
[6] = molecular target: RbmC1-GFPUV fusion (Vibrio cholerae El Tor strain N16961); assay: ITC
[7] = molecular target: RbmC2-GFPUV fusion (Vibrio cholerae El Tor strain N16961); assay: ITC

With `CC(=O)N[C@H]1[C@H](O[C@@H]2C(O)O[C@H](CO)[C@@H](O)[C@@H]2O)O[C@H](CO)[C@@H](O)[C@@H]1O` (stereo partly drawn) [GlcNAc-Man, N-acetylglucosaminyl-β-1,2-mannose] the Kd (RbmC2 β-prism domain [1]; RbmC2 β-prism affinity) was 159 µM.

For `CC(=O)N[C@H]1C(O)O[C@H](CO)[C@@H](O[C@@H]2O[C@H](CO)[C@H](O)[C@H](O)[C@H]2O)[C@@H]1O` (stereo partly drawn) [LacNAc, N-acetyl-D-lactosamine], the “RbmC1 β-prism binding” value (RbmC1 β-prism domain) was “Did not bind; also recorded: unable to observe binding”, the “VCC β-prism binding” value [2] was “Did not bind; also recorded: unable to detect binding” and the “RbmC2 β-prism binding” value (RbmC2 β-prism domain [1]) was “Did not bind; also recorded: unable to observe binding”.

In the case of `OC[C@H]1O[C@H](OC[C@H]2OC(O)[C@@H](O)[C@@H](O[C@H]3O[C@H](CO)[C@@H](O)[C@H](O)[C@@H]3O)[C@@H]2O)[C@@H](O)[C@@H](O)[C@@H]1O` (stereo partly drawn) [Mannotriose, 1,3-α-1,6-α-D-mannotriose], the Kd (RbmC1 β-prism domain; RbmC1 β-prism affinity) is reported as 0.6 µM, the Kd [2] is reported as 229 µM and the Kd (RbmC2 β-prism domain [1]; RbmC2 β-prism affinity) is reported as 4.1 µM.

In the case of `CO[C@H]1O[C@H](CO)[C@@H](O)[C@H](O)[C@@H]1O` [Me-α-mannose, methyl α-D-mannopyranoside], the Kd (RbmC1 β-prism domain; RbmC1 β-prism affinity) is listed as 503 µM and 179 µM, the Kd [3] is listed as 2700 µM and the Kd (RbmC2 β-prism domain [1]; RbmC2 β-prism affinity) is listed as 179 µM and 503 µM.

Molecule `CC(=O)N[C@H]1[C@H](O[C@H]2[C@H](O)[C@@H](NC(C)=O)C(O)O[C@@H]2CO)O[C@H](CO)[C@@H](O[C@@H]2O[C@H](CO[C@H]3O[C@H](CO)[C@@H](O)[C@H](O)[C@@H]3O[C@@H]3O[C@H](CO)[C@@H](O)[C@H](O)[C@H]3NC(C)=O)[C@@H](O)[C@H](O[C@H]3O[C@H](CO)[C@@H](O)[C@H](O)[C@@H]3O[C@@H]3O[C@H](CO)[C@@H](O)[C@H](O)[C@H]3NC(C)=O)[C@@H]2O)[C@@H]1O` (some centres unmarked) [NGA2, GlcNAcβ1-2Manα1-6(GlcNAcβ1-2Manα1–3)Manβ1-4GlcNAcβ1-4GlcNAc] has a Kd [4] of 0.2 µM and a Kd (RbmC2 β-prism domain [5]) of 0.0015 ± 0.0005 µM.

With `CC(=O)N[C@H]1[C@H](O[C@@H]2[C@@H](OC[C@H]3OC(O)[C@@H](O)[C@@H](O[C@H]4O[C@H](CO)[C@@H](O)[C@H](O)[C@@H]4O[C@@H]4O[C@H](CO)[C@@H](O)[C@H](O)[C@H]4NC(C)=O)[C@@H]3O)O[C@H](CO)[C@@H](O)[C@@H]2O)O[C@H](CO)[C@@H](O)[C@@H]1O` (some centres unmarked) [Pentasaccharide, N-linked core pentasaccharide] the Kd (RbmC2 β-prism domain [5]) was 0.0011 µM and 0.0015 µM.

With Asialofetuin the Kd (RbmC1 β-prism domain; read-out: RbmC1 β-prism affinity (apparent)) was 0.0159 µM and the Kd (RbmC2 β-prism domain [1]; read-out: RbmC2 β-prism affinity (apparent)) was 0.0184 µM.

B1: bovine asialofetuin (natural protein)
chain: IPLDPVAGYKEPACDDPDTEQAALAAVDYINKHLPRGYKHTLNQIDSVKVWPRRPTGEVYDIEIDTLETTCHVLDPTPLANCSVRQQTQHAVEGDCDIHVLKQDGQFSVLFTKCDSSPDSAEDVRKLCPDCPLLAPLNDSRVVHAVEVALATFNAESNGSYLQLVEISRAQFVPLPVSVSVEFAVAATDCIAKEVVDPTKCNLLAEKQYGFCKGSVIQKALGGEDVRVTCTLFQTQPVIPQPQPDGAEAEAPSAVPDAAGPTPSAAGPPVASVVVGPSVVAVPLPLHRAHYDLRHTFSGVASVESSSGEAFHVGKTPIVGQPSIPGGPVRLCPGRIRYFKI
modifications: three glycosylation sites occupied by heterogeneous mixtures of bi- and tri-antennary glycans (asialo form)
B1 gave a Kd [6] of 0.0159 µM and a Kd [7] of 0.0184 µM.
